Test results as given in patent US10555528B1, “Herbicidal composition and method for controlling weeds” (SUMITOMO CHEMICAL COMPANY, LIMITED, priority 2019, dated 2020).

Key:
[1] = system: corn plant; test: Spot-on crop injury test on corn leaf; format: in vivo; details: corn at 2.5-leaf stage, 2 micro liter droplet spotted on 2nd leaf; glufosinate-ammonium 40,000 ng/plant, PPO inhibitor none or 20 ng/plant (weight ratio 1/2,000); visually estimated 3 days after treatment, % of total area of treated leaf
Excerpt: 3 days after the spot-on treatments, the injured area of the treated leaf was visually estimated as a percentage on the total area of the treated leaf.

[2] = system: soybean plant; test: Spot-on crop injury test on soybean leaf; format: in vivo; details: soybean at 2 trifoliate leaf stage, 2 micro liter droplet spotted on 2nd trifoliate leaf; glufosinate-ammonium 400,000 ng/plant, PPO inhibitor none or 0.2 ng/plant (weight ratio 1/2,000,000); visually estimated 6 days after treatment, % of total area of treated leaf
Excerpt: One droplet having 2 micro liter of a commercial formulation of glufosinate-ammonium (manufactured by Bayer Cropscience KK under the trade name of Basta) having 200,000 ppm (200 g/L) of glufosinate-ammonium was spotted on the 2nd trifoliate leaf of a soybean plant at the stage of 2 trifoliate leaf.
6 days after the spot-on treatments, the injured area of the treated leaf was visually estimated as a percentage on the total area of the treated leaf.

CP(=O)(O)CCC(N)C(=O)O (centres unmarked) [Glufosinate-ammonium, glufosinate-ammonium]
Injured leaf area [1]: 60%
Injured leaf area [2]: 70%
